Legend:
[1] = molecular target: T1, serotonin receptor 5-HT1B (Rattus norvegicus, UniProt P28564); assay: radioligand binding to serotonin receptor 5-HT1B ([125I] cyanopindolol); conditions: 10 μM ligand
T1 construct: membrane species are prepared from rat brains (Wistar) by homogenization of species of rat brain-cortices; from tissue; host or cells: rat (Wistar) brain cortex membranes
Method: Screening of the disclosed compounds for potential ability to interact with serotonin receptor 5-HT1B is carried out by method of radioligand binding. For this purpose membrane species are prepared from rat brains (Wistar) by homogenization of species of rat brain-cortices in glass homogenizer with the subsequent separation of plasmatic membranes from cell nuclei, mitochondrias and cell wreckages by differential centrifugation. […] After incubation the samples are filtered in vacuo on glass-microfiber filters G/F (Millipor, USA), filters are washed three times with cold solution of medium and radioactivity is measured by scintillation counter MicroBeta 340 (Perkin Elmer, USA). […] Serotonin is used as positive control.
Tested compounds' binding to the receptor is determined by their ability to displace radioligand and expressed in percent of displacement (% I). Values of % I are calculated according to the following equation:
wherein: TA—is overall radioactivity in the presence of radioligand only, CA—is radioactivity in the presence of radioligand and tested compound and NA—is radioactivity in the presence of radioligand and Serotonin (10 μM).

recombinant human 5-HT1A = molecular target: T2, recombinant human 5-HT1A (Homo sapiens, UniProt P08908); assay: radioligand binding to serotonin receptor 5-HT1A ([3H] 8-OH-DPAT); conditions: 10 μM ligand
T2 construct: expressed in transfected cells; host or cells: CHO
T2 sequence (P08908 1-422): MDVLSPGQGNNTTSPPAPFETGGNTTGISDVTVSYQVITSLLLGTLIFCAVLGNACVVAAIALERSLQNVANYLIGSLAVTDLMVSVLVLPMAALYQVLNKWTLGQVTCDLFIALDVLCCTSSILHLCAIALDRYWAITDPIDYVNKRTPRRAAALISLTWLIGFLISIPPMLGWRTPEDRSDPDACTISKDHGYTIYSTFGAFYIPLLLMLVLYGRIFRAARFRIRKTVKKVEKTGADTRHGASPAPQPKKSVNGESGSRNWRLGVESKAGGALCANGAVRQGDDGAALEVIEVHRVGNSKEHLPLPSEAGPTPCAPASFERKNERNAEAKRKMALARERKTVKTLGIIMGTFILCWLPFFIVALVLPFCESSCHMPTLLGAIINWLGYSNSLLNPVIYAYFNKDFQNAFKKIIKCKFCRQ
Text: J Pharmacol Exp Ther. 306(1): 301-309, 2003]. […] Metergoline is used as positive control.

[2] = molecular target: T3, recombinant human 5-HT2B receptor (Homo sapiens, UniProt P41595); assay: radioligand binding to serotonin receptor 5-HT2B ([3H] Lysergic acid diethylamide); conditions: 10 μM ligand
T3 construct: expressed in transfected cells; host or cells: CHO-K1

male mice of BALB/c line [3] = assay: Passive Avoidance of mice in the Shuttle Chamber, memory disturbed by Scopolamine; format: in vivo; conditions: Scopolamine 0.3 mg/kg
Summary of the method: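 Aged male BALB/c mice (20-24 g, ≥8 per group) trained in a light/dark shuttle chamber: entry to dark section punished with 0.6 mA DC for 3 s. Retested 22-24 h later for 5 min, scoring latency to first dark entry, time in light section and number of dark entries; scopolamine used to impair memory.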

male mice of BALB/c line [4] = assay: Mice Behavior in the Elevated Plus Maze; format: in vivo; conditions: mice BALB/c
Text: The length of each arm of the maze was 30 cm, width is 5 cm, and height of the walls was 15 cm. Two opposite arms were closed from both sides and end faces by transparent walls, the other two arms were lit and opened. A mouse was placed in the center of the maze and for the next five minutes the number of entries into opened and closed arms and the time spent in each type of arms was registered. […] The animals usually avoided opened arms (the preference index is between 0.2 and 0.3). Compounds with tranquilizing action increased this index up to 0.5-0.6 or even more and reduced the number of defecations without changing the overall motion activity of the mice (the total number of their entries to the arms).

male mice of BALB/c line [5] = assay: Passive Avoidance of mice in the Shuttle Chamber, memory disturbed by MK-801; format: in vivo; conditions: MK-801 0.1 mg/kg
Method: The testing was carried out as in example 14. […] Concurrently, physiological solution of MK-801 in combination with active ingredient 1.9 (1) 1/2NDSA was injected intraintestinally to independent group of mice before training

T3 sequence (P41595 whole entry): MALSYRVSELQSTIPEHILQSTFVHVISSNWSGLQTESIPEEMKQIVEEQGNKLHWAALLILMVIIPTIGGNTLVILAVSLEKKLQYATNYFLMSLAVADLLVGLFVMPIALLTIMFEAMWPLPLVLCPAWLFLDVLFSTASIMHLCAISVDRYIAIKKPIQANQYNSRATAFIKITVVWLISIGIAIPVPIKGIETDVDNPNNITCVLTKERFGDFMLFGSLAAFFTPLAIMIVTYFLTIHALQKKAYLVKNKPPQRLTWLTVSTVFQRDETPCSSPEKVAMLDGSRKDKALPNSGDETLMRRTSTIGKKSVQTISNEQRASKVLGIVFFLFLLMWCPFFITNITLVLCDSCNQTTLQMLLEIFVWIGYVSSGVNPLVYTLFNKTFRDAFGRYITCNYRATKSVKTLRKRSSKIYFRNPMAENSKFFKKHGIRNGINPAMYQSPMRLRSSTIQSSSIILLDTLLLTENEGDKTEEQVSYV
T1 sequence (P28564 whole entry): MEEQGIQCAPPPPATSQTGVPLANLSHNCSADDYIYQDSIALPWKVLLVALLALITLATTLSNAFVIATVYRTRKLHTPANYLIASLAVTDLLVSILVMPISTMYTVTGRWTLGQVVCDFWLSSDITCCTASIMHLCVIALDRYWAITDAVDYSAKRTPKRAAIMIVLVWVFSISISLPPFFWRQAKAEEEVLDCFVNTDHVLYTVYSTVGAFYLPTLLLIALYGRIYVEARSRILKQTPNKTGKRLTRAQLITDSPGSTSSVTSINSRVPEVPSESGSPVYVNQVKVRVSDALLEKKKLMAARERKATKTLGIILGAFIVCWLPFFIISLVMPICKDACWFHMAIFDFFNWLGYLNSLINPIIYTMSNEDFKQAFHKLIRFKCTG

Row | SMILES | 5-HT1B % inhibition [1] | 5-HT1A % inhibition (recombinant human 5-HT1A) | 5-HT2B % inhibition [2] | enhancement of memory disturbed by Scopolamine (passive avoidance) (male mice of BALB/c line [3]) | anxiolytic (tranquilizing) action in elevated plus maze (male mice of BALB/c line [4]) | enhancement of memory disturbed by MK-801 (passive avoidance) (male mice of BALB/c line [5])
1 | CN1CCc2c(c3cc(F)ccc3n2CCc2ccccc2)C1.Cl [1.1.2(1-6)•HCl] | 25% | 16% | 85% |  |  | 
2 | CN1CCc2c(c3ccccc3n2Cc2ccccc2)C1 [1.9(1)·1/2NDSA, bis-(5-benzyl-2-methyl-2,3,4,5-tetrahydro-1H-pyrido[4,3-b]indole) naphthalene-1,5-disulfonate] |  |  |  | nootropic action | anxiolytic (tranquilizing) action which is comparable with the activity of Buspirone and Lorasepam | act as nootropic
